# Experimental data published in patent US7964624B1, “Inhibitors of serine proteases” (priority 2005, dated 2011).
# Biological target: T1, HCV NS3 protease domain (Hepatitis C virus genotype 1b, UniProt Q9WMX2)
# T1 construct: The first 181 amino acids of NS3 (residues 1027-1207 of the viral polyprotein); hexa-histidine (C); made in house; host or cells: E. coli BL21/DE3 pLysS
# Test: biochemical
# Conditions: Enzyme Assay 1 (HCV NS3 Protease Domain Peptide Cleavage Assay) activity, apparent Ki class
# T1 sequence (Q9WMX2 1027-1207, other chains not shown): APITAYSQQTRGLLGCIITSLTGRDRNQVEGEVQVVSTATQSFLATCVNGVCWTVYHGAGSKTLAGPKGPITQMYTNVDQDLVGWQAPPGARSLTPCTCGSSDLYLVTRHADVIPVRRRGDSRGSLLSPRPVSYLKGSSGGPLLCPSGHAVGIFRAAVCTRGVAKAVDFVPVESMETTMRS
row,SMILES,Ki [µM]
1,CCC[C@H](NC(=O)[C@@H]1C[C@]2(CC(c3cc(C)c(OC)c(C)c3)=NO2)CN1C(=O)[C@@H](NC(=O)O[C@H]1CCOC1)C(C)(C)C)C(=O)C(=O)NC1CC1 [Compound 191],> 0.5
2,CCC[C@H](NC(=O)[C@@H]1C[C@]2(CC(c3cc(Cl)c(OC)cc3OC)=NO2)CN1C(=O)OCc1ccccc1Cl)C(=O)C(=O)NC1CC1 [Compound 210],> 0.5
3,CCC[C@H](NC(=O)[C@@H]1C[C@]2(CC(c3ccccc3)=NO2)CN1C(=O)[C@@H](NC(=O)OCc1ccccc1)C(C)(C)C)C(=O)C(=O)NC1CC1 [Compound 520],> 0.5
4,CCC[C@H](NC(=O)[C@@H]1C[C@]2(CC(c3cccnc3)=NO2)CN1C(=O)[C@@H](NC(=O)CC1CCCCC1)C(C)(C)C)C(=O)C(=O)NC1CC1 [Compound 303],> 0.5
5,CCC[C@H](NC(=O)[C@@H]1C[C@]2(CC(c3cccc(Cl)c3)=NO2)CN1C(=O)[C@@H](NC(=O)C1CCCCC1C(=O)N1CCCC1)C(C)(C)C)C(=O)C(=O)NC1CC1 (stereo partly drawn) [Compound 311],> 0.5
6,CCC[C@H](NC(=O)[C@@H]1C[C@]2(CC(c3ccc(C)c(F)c3)=NO2)CN1C(=O)O[C@H]1CCOC1)C(=O)C(=O)NC1CC1 [Compound 11],> 0.5
7,CCC[C@H](NC(=O)[C@@H]1C[C@]2(CC(c3cccc(Cl)c3)=NO2)CN1C(=O)[C@@H](NC(=O)OCc1cccnc1)C(C)(C)C)C(=O)C(=O)NC1CC1 [Compound 563],0.1 to 0.5
8,CCC[C@H](NC(=O)[C@@H]1C[C@]2(CC(c3cccc(Cl)c3)=NO2)CN1C(=O)[C@@H](NC(=O)CCc1cccnc1)C(C)(C)C)C(=O)C(=O)NC1CC1 [Compound 504],0.1 to 0.5
9,CCC[C@H](NC(=O)[C@@H]1C[C@]2(CC(c3cccc(Cl)c3)=NO2)CN1C(=O)[C@@H](NC(=O)c1cc(NC(C)=O)sc1C(C)=O)C(C)(C)C)C(=O)C(=O)NC1CC1 [Compound 161],> 0.5
10,CC(C)(C)[C@H](NC(=O)CC1CCCCC1)C(=O)N1C[C@@]2(CC(c3cccc(Cl)c3)=NO2)C[C@H]1C(=O)NC(CC1CCC1)C(=O)C(N)=O (stereo partly drawn) [Compound 217],< 0.1
11,CCC[C@H](NC(=O)[C@@H]1C[C@]2(CC(c3cc(Cl)c(OC)cc3OC)=NO2)CN1C(=O)NCc1ccccc1)C(=O)C(=O)NC1CC1 [Compound 313],> 0.5
12,CCC[C@H](NC(=O)[C@@H]1C[C@]2(CC(c3ccccc3)=NO2)CN1C(=O)[C@@H](NC(=O)NCC1CCCCC1)C(C)(C)C)C(=O)C(=O)NC1CC1 [Compound 249],0.1 to 0.5
13,CCC[C@H](NC(=O)[C@@H]1C[C@]2(CC(c3ccc4noc(-c5ccc(Cl)cc5)c4c3)=NO2)CN1C(=O)[C@@H](NC(=O)O[C@H]1CCOC1)C(C)(C)C)C(=O)C(=O)NC1CC1 [Compound 448],0.1 to 0.5
14,CC(C)C[C@H](NC(=O)[C@@H]1C[C@]2(CC(c3cccc(Cl)c3)=NO2)CN1C(=O)[C@@H](NC(=O)CC1CCCCC1)C(C)(C)C)C(=O)C(=O)NC1CC1 [Compound 579],0.1 to 0.5
15,CCC[C@H](NC(=O)[C@@H]1C[C@]2(CC(c3ccc4c(c3)CCC(C)(C)O4)=NO2)CN1C(=O)[C@@H](NC(=O)O[C@H]1CCOC1)C(C)(C)C)C(=O)C(=O)NC1CC1 [Compound 150],0.1 to 0.5
16,CCC[C@H](NC(=O)[C@@H]1C[C@]2(CC(c3cccc(Cl)c3)=NO2)CN1C(=O)[C@@H](NC(=O)OCc1ccc(C)cc1)C(C)(C)C)C(=O)C(=O)NC1CC1 [Compound 471],0.1 to 0.5
17,C=C[C@@H]1C[C@]1(NC(=O)[C@@H]1C[C@]2(CC(c3cccc(Cl)c3)=NO2)CN1C(=O)[C@@H](NC(=O)CC1CCOCC1)C(C)(C)C)C(=O)NS(=O)(=O)C1CC1 [Compound 359],0.1 to 0.5
18,CCC[C@H](NC(=O)[C@@H]1C[C@]2(CC(c3ccc4c(c3)OCO4)=NO2)CN1C(=O)c1ccc[nH]1)C(=O)C(=O)NC1CC1 [Compound 464],> 0.5
19,CCC[C@H](NC(=O)[C@@H]1C[C@]2(CC(c3cc(Cl)cc(Cl)c3)=NO2)CN1C(=O)[C@@H](NC(=O)CC1CCOCC1)C(C)(C)C)C(=O)C(=O)NC1CC1 [Compound 285],0.1 to 0.5
20,CCC[C@H](NC(=O)[C@@H]1C[C@]2(CC(C3CCCC3)=NO2)CN1C(=O)[C@@H](NC(=O)O[C@H]1CCOC1)C(C)(C)C)C(=O)C(=O)NC1CC1 [Compound 70],> 0.5
21,CCC[C@H](NC(=O)[C@@H]1C[C@]2(CC(c3ccccc3Oc3ccc(OC)cc3)=NO2)CN1C(=O)[C@@H](NC(=O)OCc1ccccc1)C(C)(C)C)C(=O)C(=O)NC1CC1 [Compound 278],> 0.5
22,C=CCOC(=O)N[C@H](C(=O)N1C[C@@]2(CC(c3ccccc3)=NO2)C[C@H]1C(=O)N[C@@H](CCC)C(=O)C(=O)NC1CC1)C(C)(C)C [Compound 151],0.1 to 0.5
23,CCC[C@H](NC(=O)[C@@H]1C[C@]2(CC(c3cccc(Cl)c3)=NO2)CN1C(=O)[C@@H](NC(=O)CC(C)(C)O)C(C)(C)C)C(=O)C(=O)NC1CC1 [Compound 392],0.1 to 0.5
24,CCC[C@H](NC(=O)[C@@H]1C[C@]2(CC(c3cccc(Cl)c3)=NO2)CN1C(=O)[C@@H](NC(=O)CCC1CCCCC1)C(C)(C)C)C(=O)C(=O)NC1CC1 [Compound 226],0.1 to 0.5

row,SMILES,Ki [µM]
1,CCC[C@H](NC(=O)[C@@H]1C[C@]2(CC(c3ccc(C(F)(F)F)cc3)=NO2)CN1C(=O)O[C@H]1CCOC1)C(=O)C(=O)NC1CC1 [Compound 240],> 0.5
2,CCC[C@H](NC(=O)[C@@H]1C[C@]2(CC(c3ccc(F)c(C)c3)=NO2)CN1C(=O)[C@@H](NC(=O)O[C@H]1CCOC1)C(C)(C)C)C(=O)C(=O)NC1CC1 [Compound 555],0.1 to 0.5
3,CCC[C@H](NC(=O)[C@@H]1C[C@]2(CC(c3cc(F)cc(Cl)c3)=NO2)CN1C(=O)[C@@H](NC(=O)CC1CCOCC1)C(C)(C)C)C(=O)C(=O)NC1CC1 [Compound 234],0.1 to 0.5
4,CCC[C@H](NC(=O)[C@@H]1C[C@]2(CC(c3cccc(Cl)c3)=NO2)CN1C(=O)[C@@H](NC(=O)Cc1ccc(C)c(F)c1)C(C)(C)C)C(=O)C(=O)NC1CC1 [Compound 102],0.1 to 0.5
5,CCC[C@H](NC(=O)[C@@H]1C[C@]2(CC(c3cccc(Cl)c3)=NO2)CN1C(=O)[C@@H](NC(=O)C(F)c1ccccc1)C(C)(C)C)C(=O)C(=O)NC1CC1 (stereo partly drawn) [Compound 393],0.1 to 0.5
6,CCC[C@H](NC(=O)[C@@H]1C[C@]2(CC(c3cccc(Cl)c3)=NO2)CN1C(=O)[C@@H](NC(=O)Cc1cc(F)ccc1C)C(C)(C)C)C(=O)C(=O)NC1CC1 [Compound 155],> 0.5
7,CCC[C@H](NC(=O)[C@@H]1C[C@]2(CC(c3cccc(Cl)c3)=NO2)CN1C(=O)[C@@H](NC(=O)CN1CCOCC1)C(C)(C)C)C(=O)C(=O)NC1CC1 [Compound 81],> 0.5
8,CCC[C@H](NC(=O)[C@@H]1C[C@]2(CC(c3cccc(Cl)c3)=NO2)CN1C(=O)[C@@H](NC(=O)O[C@H]1CCOC1)C(C)(C)C)C(=O)C(=O)NC1CC1 [Compound 83],0.1 to 0.5
9,CCC[C@H](NC(=O)[C@@H]1C[C@]2(CC(c3cccc(Cl)c3)=NO2)CN1C(=O)[C@@H](NC(=O)[C@@H](CC(=O)N1CCCC1)C1CCCCC1)C(C)(C)C)C(=O)C(=O)NC1CC1 [Compound 549],< 0.1
10,CCC[C@H](NC(=O)[C@@H]1C[C@]2(CC(c3cccc(Cl)c3)=NO2)CN1C(=O)[C@@H](NC(=O)CC1CC(=O)c2ccc(OC)cc21)C(C)(C)C)C(=O)C(=O)NC1CC1 (stereo partly drawn) [Compound 487],0.1 to 0.5
11,CCC[C@H](NC(=O)[C@@H]1C[C@]2(CC(c3cccc(Br)c3)=NO2)CN1C(=O)[C@@H](NC(=O)OCc1ccccc1)C(C)(C)C)C(=O)C(=O)NC1CC1 [Compound 239],0.1 to 0.5
12,CCC[C@H](NC(=O)[C@@H]1C[C@]2(CC(c3cccc(Cl)c3)=NO2)CN1C(=O)[C@@H](NC(=O)CCn1ncc2ccccc21)C(C)(C)C)C(=O)C(=O)NC1CC1 [Compound 528],0.1 to 0.5
13,CCC[C@H](NC(=O)[C@@H]1C[C@]2(CC(c3ccc4c(c3)OCO4)=NO2)CN1C(=O)[C@@H](NC(=O)O[C@H]1CCOC1)C(C)(C)C)C(=O)C(N)=O [Compound 422],0.1 to 0.5
14,CCC[C@H](NC(=O)[C@@H]1C[C@]2(CC(c3cccc(Cl)c3)=NO2)CN1C(=O)[C@@H](NC(=O)OCC1CCCCO1)C(C)(C)C)C(=O)C(=O)NC1CC1 (stereo partly drawn) [Compound 308],0.1 to 0.5
15,CCC[C@H](NC(=O)[C@@H]1C[C@]2(CC(c3cccc(Cl)c3)=NO2)CN1C(=O)[C@@H](NC(=O)NC1CC1)C(C)(C)C)C(=O)C(=O)NC1CC1 [Compound 76],0.1 to 0.5
16,CCC[C@H](NC(=O)[C@@H]1C[C@]2(CC(c3cc(C)cc(C)c3)=NO2)CN1C(=O)[C@@H](NC(=O)O[C@H]1CCOC1)C(C)(C)C)C(=O)C(=O)NC1CC1 [Compound 519],0.1 to 0.5
17,CCC[C@H](NC(=O)[C@@H]1C[C@]2(CC(c3cccc(-c4ccccc4)c3)=NO2)CN1C(=O)[C@@H](NC(=O)O[C@H]1CCOC1)C(C)(C)C)C(=O)C(=O)NC1CC1 [Compound 257],0.1 to 0.5
18,CCC[C@H](NC(=O)[C@@H]1C[C@]2(CC(C(=O)NCc3ccccc3)=NO2)CN1C(=O)[C@@H](NC(=O)O[C@H]1CCOC1)C(C)(C)C)C(=O)C(=O)NC1CC1 [Compound 341],> 0.5
19,COc1ccc(C2=NO[C@@]3(C2)C[C@@H](C(=O)NC(CC2CCC2)C(=O)C(N)=O)N(C(=O)[C@@H](NC(=O)OCc2ccccc2)C(C)(C)C)C3)c(OC)c1 (stereo partly drawn) [Compound 424],0.1 to 0.5
20,CCC[C@H](NC(=O)[C@@H]1C[C@]2(CC(c3cccc(Cl)c3)=NO2)CN1C(=O)[C@@H](NC(=O)OCCCc1cccnc1)C(C)(C)C)C(=O)C(=O)NC1CC1 [Compound 389],> 0.5
21,CCC[C@H](NC(=O)[C@@H]1C[C@]2(CC(c3ccc4c(c3)OCO4)=NO2)CN1C(=O)[C@@H](NC(=O)CC1CCOCC1)C(C)(C)C)C(=O)C(=O)NC1CC1 [Compound 82],0.1 to 0.5
22,CCC[C@H](NC(=O)[C@@H]1C[C@]2(CC(c3ccc(F)c(Cl)c3)=NO2)CN1C(=O)[C@@H](NC(=O)O[C@H]1CCOC1)C(C)(C)C)C(=O)C(=O)NC1CC1 [Compound 301],0.1 to 0.5
23,CCCC1=NO[C@]2(C1)C[C@@H](C(=O)N[C@@H](CCC)C(=O)C(=O)NC1CC1)N(C(=O)[C@@H](NC(=O)[C@@H](NC(=O)c1cnccn1)C1CCCCC1)C(C)(C)C)C2 [Compound 400],< 0.1
24,CCC[C@H](NC(=O)[C@@H]1C[C@]2(CC(c3cccc(Cl)c3)=NO2)CN1C(=O)[C@@H](NC(=O)OCc1ccccc1Cl)C(C)(C)C)C(=O)C(=O)NC1CC1 [Compound 39],0.1 to 0.5
